# Laboratory results from patent publication US20210106703A1, “RADIOIMMUNOCONJUGATES IN COMBINATION WITH OTHER DRUGS AS TREATMENT AGAINST NHL” (Nordic Nanovector ASA, priority 2017, published 2021).
# “Also recorded” adds a separate entry of the source.
# Key:
# Type in all cases: cell-based, human
# Rec-1 cells [1] = test: Apoptosis induction (Annexin V/7-AAD, Muse flow cytometer); details: Rec-1, 6 MBq/mL radiolabelled mAb for 18 h, peak time 72 h
# Protocol: (§1) Cells were harvested at 0, 2 h, 18 h, 1 d, 2 d, 3 d of RIT. At each time point, apoptosis was detected with […] from Merck Millipore (Annexin V Kit with 7-AAD) in the dark for 30 min at room temperature before analysis using Muse® flow cytometer
# Ramos cells [2] = test: as above; details: 6 MBq/mL radiolabelled mAb for 18 h, peak time 72 h
# Protocol: as §1
# DOHH2 cells [3] = test: as above; details: DOHH2, 6 MBq/mL radiolabelled mAb for 18 h, peak time 72 h
# Protocol: as §1
# [4] = test system: CD133 and CD44 at the DOHH2 cell surface; test: Expression of stem cell markers after RIT (flow cytometry); details: DOHH2, 6 MBq/mL for 18 h, up to 9 days post-RIT
# Protocol: Cells were harvested at 0, 2 h, 18 h and each day from 1 d to 10 d of RIT. At each time point, cells were fixed with PFA 4% for 10 minutes, washed twice with PBS and sterilely stored in PBS at 4° C. Stem cell markers were detected with anti-CD133-FITC (clone: AC133, Milteniy) and anti-CD44-APC (clone: IM7, Merck Millipore). 0.5×10^6 cells were saturated for 1 h in PBS-BSA 0.5%. Next cells were centrifuged and incubated with anti-CD133-FITC (2 μL) and anti-CD44-APC (0.125 μg) for 1 h at room temperature in the dark. Finally, cells were rinsed twice and analysed using Gallios® flow cytometer (Beckman Coulter).
# For a preliminary study, investigation of the expression of CD133 and CD44 at the surface of cells treated for 18 h with 6 MBq/mL ^177Lu-lilotomab and ^177Lu-rituximab was done.
# Rec-1 cells [5] = test: Cell cycle analysis (PI, Muse flow cytometer); details: Rec-1, 6 MBq/mL, at 24 h
# Protocol: (§2) Cells were harvested at day 0, 2 h, 18 h, 1 d, 2 d, 3 d, of RIT then fixed in 70% ethanol at −20° C. for 3 hours and stained with Cell Cycle kit (with PI) reagent from Merck Millipore in the dark for 30 min at room temperature before analysis using a Muse® flow cytometer. The percentage of cells in G0/G1, S and G2/M phases was then calculated (mean of three experiments in triplicate).
# (§3) At different times after start of incubation, proteins were extracted to measure the CDK1 phosphorylation levels, in parallel, proliferation was determined and at 18 h and 24 h after start of incubation, the percentage of cells in G2/M was assessed (experiments were performed three time except the cell cycle analysis).
# (§4) Cells were harvested at 0 h, 2 h, 18 h, 1 d, 2 d, 3 d, and fixed in 70% ethanol at −20° C. for at least 3 h. After staining with the Muse® Cell Cycle Assay Kit (Merck Millipore, Molsheim, France) using propidium iodide in the dark at room temperature for 30 min, cell cycle distribution was analyzed using a Muse® flow cytometer. The percentage of cells in the G0/G1, S and G2/M was calculated (mean of three experiments in triplicate) and the effect of WEE-1 and MYT-1 kinase inhibitors on the cell cycle was assessed.
# Ramos cells [6] = test: Cell cycle analysis (PI, Muse flow cytometer); details: 6 MBq/mL, at 24 h
# Protocol: as §2, §3, §4
# DOHH2 cells [7] = test: Cell cycle analysis (PI, Muse flow cytometer); details: DOHH2, 6 MBq/mL, at 24 h
# Protocol: as §2, §3, §4
# U-2932 cells [8] = test: Real Time Glo viability screen and validation, Betalutin with PARP or cell cycle kinase inhibitors (Examples 4, 7); details: for BLISS analysis, combination with Betalutin versus expected additive effect: U-2932, significant = more than twice the SD of Betalutin alone
# Protocol: (§5) DLBCL cell lines U2932 and RIVA were maintained in RPMI 1640-GlutaMAX medium (Gibco) supplemented with 15% fetal bovine serum (Biowest) and 1% penicillin-streptomycin (Gibco) at 37° C. in a humidified atmosphere containing 5% CO2. Cells were split twice a week 1:7 and diluted 2-4 days before start of the experiment, to ensure they are in exponential growth at the beginning of the experiment.
# (§6) Cells were treated in 6-well plates without shaking for 18 h with Betalutin at a final concentration of 1 μg/ml for U2932 and 0.5 μg/ml for RIVA. After treatment, PBS was added to the cells, and the cells pelleted. Cells were first resuspended in 1 ml PBS, then washed twice in PBS and finally diluted in growth medium to a final concentration of 2.5*10^6 cells/ml.
# (§7) Cells density measurements were performed the day before seeding. Based on these measurements cells were seeded in 384-well plates at a density of 3000 cells per well in a culturing volume of 25 μl (resulting in start titers: 120 000 cells/ml) using a robot. For measuring viability using Real Time Glo (Promega, WI, USA), the Cell Viability Substrate and NanoLuc® Enzyme were diluted 1:500 in growth medium, and 25 μL of diluted reagents dispensed in each well by a robot. All reagents were equilibrated to 37° C. Cells were incubated with the reaction mix for 1 h at 37° C. before the first measurement of luminescence. Measurements were repeated as often as required within 72 h after adding the reagents. A Tecan SPARK 10M plate reader (Tecan, SUI) was used to measure luminescence, with the integration time set to 1 sec.
# (§8) The screen was performed in 384-well plate with selected PARP inhibitors (stock solutions 10 mM in DMSO) acquired from SelleckChem (Selleckchem, TX, USA). To include no-drug controls, the drug panel (Table 6) was divided on two plates. Due to previous observations of cells growing poorly in wells located at the edges of the plates, the two outer most rows and columns were not used. As previously mentioned three different drug concentrations were used in the screen, 10 nM and 1 μM for U2932 and 10 and 100 nM for RIVA.
# (§9) Candidate hits were identified using the Bliss Independence test for synergy. The effect of each drug alone at each concentration was calculated as the fraction of dead cells as compared to control cells Fa=(1−(RLUdrug/avgRLUcontrol), a similar calculation was performed for the effect of Betalutin alone Fb=(1−(avgRLUBetalutin/avgRLUcontrol). Through the following equation we found the expected additive effect of the combination of drug+Betalutin: Expected effect (E)Fab=(Fa+Fb−Fa*Fb). We subtracted this expected effect from the measured effect (M)Fab=(1−(RLUDrug+Betalutin/avgRLUcontrol) to get a value (Diff)Fab representing how the measured effect differed from the expected additive effect of the combination. This value was normalized to the survival fraction of drug alone: (Diff)Fab#=(Diff)Fab/(1−Fa). Furthermore, to get a measure of how big the well-to-well variation was, we calculated the standard deviation for the effect of Betalutin alone in the 48 control wells on each plate: (STDEV)Fb=(RLUBetalutin/RLUcontrol)−(averageRLUBetalutin/averageRLUcontrol). Drugs with a value (Diff)Fab#two times higher than the standard deviation of Betalutin treated controls, (STDEV)Fb, were scored as hits.
# as §7, with “Measurements were repeated as often as required within 72 h after adding the reagents. A Tecan SPARK 10M plate reader (Tecan, SUI) was used to measure luminescence, with the integration time set to 1 sec.” left out
# U-2932 cells [9] = test: as above; details: for Effect of monotreatment on proliferation: U-2932, validation screen, 0-1280 nM
# RIVA cells = test: Real Time Glo viability screen, Betalutin with PARP or cell cycle kinase inhibitors (Examples 4, 7); details: for BLISS analysis, combination with Betalutin versus expected additive effect: significant = more than twice the SD of Betalutin alone
# Protocol: as §5, §6, §7, §8, §9
# as §7, with “Measurements were repeated as often as required within 72 h after adding the reagents. A Tecan SPARK 10M plate reader (Tecan, SUI) was used to measure luminescence, with the integration time set to 1 sec.” left out
# [10] = U-2932, drug 1 μM + Betalutin 1 μg/ml
# [11] = RIVA, drug 100 nM + Betalutin 0.5 μg/ml
Molecule,"BLISS analysis, combination with Betalutin versus expected additive effect (U-2932 cells [8])",Effect of monotreatment on proliferation (U-2932 cells [9]),"BLISS analysis, combination with Betalutin versus expected additive effect (RIVA cells; RIVA)","Growth inhibitory effect, drug alone (U-2932 cells [8]; U-2932, drug 10 nM)","Growth inhibitory effect, drug combined with Betalutin (U-2932 cells [8]; [10])","Growth inhibitory effect, drug alone (RIVA cells; RIVA, drug 10 nM)","Growth inhibitory effect, drug combined with Betalutin (RIVA cells; [11])",further results
^177Lu-rituximab,,,,,,,,Apoptosis level (Rec-1 cells [1]): 79±16%; Apoptosis level (Ramos cells [2]): 56±12%; Apoptosis level (DOHH2 cells [3]): 97±3%; Proportion of cells expressing CD44 and CD133 [4]: strongly increased; Proportion of cells showing a G2/M cell cycle arrest (Rec-1 cells [5]): 40±11%; Proportion of cells showing a G2/M cell cycle arrest (Ramos cells [6]): 56±13%; Proportion of cells showing a G2/M cell cycle arrest (DOHH2 cells [7]): 38±2%
CC[C@@H]1C(=O)N(C)c2cnc(Nc3ccc(C(=O)NC4CCN(C)CC4)cc3OC)nc2N1C1CCCC1 [BI2536],significance was only reached in U-2932 cells,blocked proliferation almost completely at concentrations above 40 nM,significance was only reached in U-2932 cells,,,,,"inhibition at 0.01 µM (U-2932 cells [8]; Homo sapiens, U2932, read-out: Inhibition of proliferation, drug alone): > 80%; Drug concentration at which synergism with Betalutin is evident (CI, Chou-Talalay) (U-2932 cells [9]; U-2932, Betalutin 0.5, 1 or 2 μg/ml, day 5): 40 nM; inhibition at 0.01 µM (RIVA cells; Homo sapiens, read-out: Inhibition of proliferation, drug alone): > 80%"
CN(C)Cc1ccc(-c2nc3cccc4c3n2CCNC4=O)cc1 [AG-14361],strongest combinatory effect,,strongest combinatory effect,only a minor inhibitory effect; also recorded: no growth inhibitory effect,potentiated the proliferation inhibitory effect of Betalutin; also recorded: stronger growth inhibition than AG-14361 alone,only a minor inhibitory effect; also recorded: no growth inhibitory effect,potentiated the proliferation inhibitory effect of Betalutin; also recorded: stronger growth inhibition than AG-14361 alone,"Growth inhibitory effect, drug combined with Betalutin (U-2932 cells [8]; U-2932, drug 10 nM + Betalutin 1 μg/ml): did not enhance the growth inhibitory effect of Betalutin; Growth inhibitory effect, drug alone (U-2932 cells [8]; U-2932, drug 1 μM): inhibited proliferation; Growth inhibitory effect, drug combined with Betalutin (RIVA cells; RIVA, drug 10 nM + Betalutin 0.5 μg/ml): did not enhance the growth inhibitory effect of Betalutin; Growth inhibitory effect, drug alone (RIVA cells; RIVA, drug 100 nM): inhibited proliferation"
CNCc1ccc(-c2[nH]c3cc(F)cc4c3c2CCNC4=O)cc1 [Rucaparib],larger than the expected additive effect,,larger than the expected additive effect,,potentiated the proliferation inhibitory effect of Betalutin; also recorded: stronger growth inhibition than Betalutin alone,,potentiated the proliferation inhibitory effect of Betalutin; also recorded: stronger growth inhibition than Betalutin alone,"Growth inhibitory effect, drug alone (U-2932 cells [8]; U-2932, all tested concentrations (10 nM, 1 μM)): no growth inhibitory effect; Growth inhibitory effect, drug alone (RIVA cells; RIVA, all tested concentrations (10, 100 nM)): no growth inhibitory effect"
COc1cc(Nc2ncc3c(n2)-c2ccc(Cl)cc2C(c2c(F)cccc2OC)=NC3)ccc1C(=O)O [MLN8237],,impaired proliferation at concentrations up to 160 nM,significantly greater effect than the expected additive effect,insufficient to inhibit proliferation,enhanced,insufficient to inhibit proliferation,enhanced,"inhibition at 1 µM (U-2932 cells [8]; Homo sapiens, U2932, 144 h, U-2932, drug 1 μM, day 6, read-out: Growth inhibition, drug alone): ~40%; inhibition at 0.1 µM (RIVA cells; Homo sapiens, 144 h, RIVA, drug 100 nM, day 6, read-out: Growth inhibition, drug alone): ~60%"
C[C@@H](Oc1cc(-n2cnc3ccc(CN4CCN(C)CC4)cc32)sc1C(N)=O)c1ccccc1C(F)(F)F [GSK461364],significantly greater than the expected additive effect,blocked proliferation almost completely at concentrations above 40 nM,significantly greater than the expected additive effect,less potency than BI2536,,less potency than BI2536,,
